Test results taken from ChEMBL document CHEMBL1134738, “Alpha-ketoester-based photobiological switches: synthesis, peptide chain extension and assay against alpha-chymotrypsin” (Bioorg Med Chem Lett, 2001).

How the values were obtained:
[1] = target: T1, Chymotrypsinogen A (Bos taurus, UniProt P00766); test: Inhibition constant for inhibition of alpha-chymotrypsin by the ambient light
[2] = target: T1, Chymotrypsinogen A; test: Inhibition constant for inhibition of alpha-chymotrypsin by the UV light

COC(=O)C(=O)[C@H](Cc1ccccc1)NC(=O)c1ccc(/N=N/c2ccccc2)cc1
Ki [1]: 240 nM | Ki [2]: 130 nM

COC(=O)C(=O)[C@H](Cc1ccccc1)NC(=O)OCc1ccc(/N=N/c2ccccc2)cc1
Ki [1]: 770 nM | Ki [2]: 290 nM
